Measurements: PubChem BioAssay (NCI)
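Five compound concentrations were applied to cells in 96-well plates for 48 hours; endpoints were derived by simple linear interpolation of the resulting dose-response curve. GI50 is the concentration that inhibits growth by half. Definition used: TGI = concentration required for complete inhibition of growth.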

Assays:
Experiment in all cases: DTP human tumour cell line panel, 48 h
HCT-116 colon = test system: HCT-116 colon
HS 578T breast = test system: HS 578T breast
MCF7 breast = test system: MCF7 breast
NCI-H460 lung = test system: NCI-H460 lung
OVCAR-3 ovarian = test system: OVCAR-3 ovarian
OVCAR-4 ovarian = test system: OVCAR-4 ovarian
OVCAR-8 ovarian = test system: OVCAR-8 ovarian
SN12C renal = test system: SN12C renal
T-47D breast = test system: T-47D breast
U251 CNS = test system: U251 CNS

Compound	TGI (HCT-116 colon)	TGI (HS 578T breast)	TGI (MCF7 breast)	TGI (NCI-H460 lung)	TGI (OVCAR-3 ovarian)	TGI (OVCAR-4 ovarian)	TGI (OVCAR-8 ovarian)	TGI (SN12C renal)	TGI (T-47D breast)	TGI (U251 CNS)	GI50 (HCT-116 colon)	GI50 (HS 578T breast)	GI50 (MCF7 breast)	GI50 (NCI-H460 lung)	GI50 (OVCAR-3 ovarian)	GI50 (OVCAR-4 ovarian)	GI50 (OVCAR-8 ovarian)	GI50 (SN12C renal)	GI50 (T-47D breast)	GI50 (U251 CNS)
COC(=O)[C@H](Cc1ccccc1)NC(=O)N(CCNC(=O)OC(C)(C)C)c1ccccc1	> 100 µM	> 100 µM	> 100 µM	> 100 µM	> 100 µM	> 100 µM	> 100 µM	> 100 µM	> 100 µM	> 100 µM										
COc1ccc(C=O)cc1OS(=O)(=O)C(F)(F)C(F)(F)C(F)(F)C(F)(F)F	> 70.4 µM	68.8 µM	> 100 µM	> 93.4 µM	> 69.2 µM	> 100 µM	> 100 µM	97.5 µM	> 100 µM	66.5 µM										
OC(Cc1cc(CC(O)(C(F)(F)F)C(F)(F)F)nc(CC(O)(C(F)(F)F)C(F)(F)F)c1)(C(F)(F)F)C(F)(F)F	2.76 µM	4.63 µM	9.06 µM	1.81 µM	1.96 µM	> 10 µM	> 10 µM	7.33 µM	> 10 µM	5.32 µM										
OCC1OC(n2cnc3c(Cl)nc(Nc4ccc(Cl)c(Cl)c4)nc32)CC1O (centres undefined)	28.9 µM	32.3 µM	27.5 µM	16.8 µM	46.1 µM	41.8 µM	22.6 µM	23.4 µM	> 50 µM	23.8 µM										
CC1(C)[C@H]2Cc3cc4nc5ccccn5c4cc3[C@@H]1C2	33 µM	37.7 µM	17.8 µM	38.8 µM	35.6 µM	26 µM	30.5 µM	35.8 µM	53.7 µM	34.2 µM										
Cc1ccc(-c2cc(=O)c(=O)[nH][nH]2)cc1	> 100 µM	> 100 µM	> 100 µM	> 100 µM	> 100 µM	> 100 µM	> 100 µM	> 100 µM	> 100 µM	> 100 µM										
Cn1c(=S)[nH]c(N)c(Cc2ccccc2)c1=O	> 100 µM	> 100 µM	> 100 µM	> 100 µM	> 100 µM	> 100 µM	> 100 µM	> 100 µM	> 100 µM	> 100 µM										
c1ccc(/C(=N/Nc2ccccn2)c2cccnn2)cc1	> 100 µM	> 79 µM	> 93.4 µM	> 100 µM	> 100 µM	> 100 µM	18.9 µM	40.7 µM	> 100 µM	> 100 µM										
Cc1cc(=O)oc2c(C)c3oc(CBr)cc3cc12	39.4 µM	> 100 µM	> 100 µM	36.4 µM	> 100 µM	65.1 µM	66.7 µM	42.2 µM	60.8 µM	47.1 µM										
Cn1c(=O)c2c(=O)cc(N)[nH]c2n(C)c1=O	> 100 µM	> 100 µM	> 100 µM	> 100 µM	> 100 µM	> 100 µM	> 100 µM	> 100 µM	> 100 µM	> 100 µM										
O=C(Nc1ccc(F)cc1)c1cc2c(cc1Cl)Sc1nccn1S2(=O)=O	> 100 µM	> 100 µM	> 100 µM	> 100 µM	> 100 µM	> 100 µM	> 100 µM	> 100 µM	> 100 µM	45.2 µM										
C#CCn1c(=O)ccn(/C(=C/C(=O)OCC)C(=O)OCC)c1=O	18.7 µM	43.5 µM	13 µM	10.3 µM	13.7 µM	17.8 µM	5.11 µM	29.5 µM	14.1 µM	35.4 µM										
CC1CC(=O)Nc2ccccc2N1C(=O)C1CC1 (centres undefined)	> 100 µM	> 100 µM	> 100 µM	> 100 µM	> 100 µM	> 100 µM	> 100 µM	> 100 µM	> 100 µM	> 100 µM										
O=CC1OC(=O)c2cc(O)c(O)c(O)c2-c2c(cc(O)c(O)c2O)C(=O)OC1C1OC(=O)c2cc(O)c(O)c(O)c2-c2c(O)c(O)c3oc(=O)c4c(c(O)c(O)c5oc(=O)c2c3c54)-c2c(cc(O)c(O)c2O)C(=O)OCC1O (centres undefined)	32.6 µM	> 100 µM	40.6 µM	> 100 µM	> 100 µM	38.2 µM	41.2 µM	35.5 µM	> 100 µM	44.8 µM										
CC/C=C\C=C/C(=O)N/C=C/CCC	> 100 µM	> 100 µM	> 100 µM	> 100 µM	> 100 µM	> 100 µM	> 100 µM	> 100 µM	> 100 µM	> 100 µM										
CC(C)C(=O)/C=C/c1c(Cl)cccc1Cl	5.83 µM	9.72 µM	15.8 µM	5.68 µM	6.56 µM	9.4 µM	13.6 µM	13.6 µM	9.31 µM	11.7 µM										

Compound	TGI (HCT-116 colon)	TGI (HS 578T breast)	TGI (MCF7 breast)	TGI (NCI-H460 lung)	TGI (OVCAR-3 ovarian)	TGI (OVCAR-4 ovarian)	TGI (OVCAR-8 ovarian)	TGI (SN12C renal)	TGI (T-47D breast)	TGI (U251 CNS)	GI50 (HCT-116 colon)	GI50 (HS 578T breast)	GI50 (MCF7 breast)	GI50 (NCI-H460 lung)	GI50 (OVCAR-3 ovarian)	GI50 (OVCAR-4 ovarian)	GI50 (OVCAR-8 ovarian)	GI50 (SN12C renal)	GI50 (T-47D breast)	GI50 (U251 CNS)
[O-][N+]1=C2CCC/C(=N/O)C2(O)C2CCCCC21N1CCOCC1 (centres undefined)	> 100 µM	> 100 µM	> 100 µM	> 100 µM	> 100 µM	> 100 µM	> 100 µM	> 100 µM	> 100 µM	> 100 µM										
CON[N+]([O-])=NC(C)C	> 100 µM	> 100 µM	> 100 µM	> 100 µM	> 100 µM	> 100 µM	> 100 µM	> 100 µM	> 100 µM	> 100 µM										
O=C(/C=C/c1cccc(Br)c1)N1CCN(CCOC(c2ccccc2)c2ccccc2)CC1	> 100 µM	> 100 µM	> 100 µM	> 100 µM	> 100 µM	> 100 µM	> 100 µM	> 100 µM	82.9 µM	> 100 µM										
O=C(CC(=O)N1N=C(N(c2ccccc2)c2ccccc2)CC1c1ccccc1)Nc1cccc(Cl)c1 (centres undefined)	> 100 µM	> 100 µM	> 100 µM	> 100 µM	> 100 µM	> 100 µM	> 100 µM	> 100 µM	> 100 µM	> 100 µM										
CN(C)NC1=NS(=O)(=O)c2cc3c(=O)n(C)[nH]c3cc2S1	> 10 µM	> 10 µM	> 10 µM	> 10 µM	> 10 µM	> 10 µM	> 10 µM	> 10 µM	> 10 µM	> 10 µM										
CC(C)CC1N=C(OCc2ccccc2)OC1=O (centres undefined)	> 100 µM	> 100 µM	> 100 µM	> 100 µM	> 100 µM	> 100 µM	> 100 µM	> 100 µM	> 100 µM	> 100 µM										
CN1CCN(c2n[nH]c(=O)c3c2nnn3C2CCCCC2)CC1	> 100 µM	> 100 µM	> 100 µM	> 100 µM	> 100 µM	> 100 µM	> 100 µM	> 100 µM	> 100 µM	> 100 µM										
Cc1cccc(N=N/C(=N\NC(=O)c2cc(Cl)ccc2O)c2ccc(N(CCC#N)CCC#N)cc2C)c1	> 100 µM	> 100 µM	> 100 µM	79.7 µM	49.6 µM	76.3 µM	> 100 µM	69 µM	59.6 µM	> 100 µM										
COC(=O)C1Cc2cc3c(cc2C1)CCC3	> 100 µM	> 100 µM	> 100 µM	> 100 µM	> 100 µM	> 100 µM	> 100 µM	> 100 µM	> 100 µM	> 100 µM										
CN(C)CC(C)(C)CN1c2ccccc2Sc2ccccc21	26.7 µM	28.5 µM	30 µM	26.3 µM	24.3 µM	26.5 µM	28.6 µM	25.9 µM	29.3 µM	26.4 µM										
CCOC(=O)CC1Nc2ccccc2C12CCc1c([nH]c3ccccc13)C2C(=O)OCC (centres undefined)	> 100 µM	> 100 µM	> 100 µM	> 100 µM	> 100 µM	> 100 µM	> 100 µM	> 100 µM	> 100 µM	> 100 µM										
Cn1c(=O)cc(Nc2ccc(N)cc2)[nH]c1=O	> 100 µM	> 100 µM	> 100 µM	> 100 µM	> 100 µM	> 100 µM	> 100 µM	> 100 µM	> 100 µM	> 100 µM										
NS(=O)(=O)c1ccc(NC(=O)c2ccc3nc4ccccc4c(Nc4ccc(S(N)(=O)=O)cc4)c3c2)cc1	> 100 µM	> 100 µM	> 100 µM	> 100 µM	> 100 µM	> 100 µM	> 100 µM	> 100 µM	> 100 µM	> 100 µM										
C#CCNC(=O)CC[C@@H](C)[C@H]1CC[C@H]2[C@@H]3CC[C@@H]4CC(=O)CC[C@]4(C)[C@H]3CC[C@]12C	52 µM	77.3 µM	52.7 µM	51.2 µM	36.1 µM	52.6 µM	32.8 µM	32.1 µM	68.2 µM	39.4 µM	12.9 µM	21.3 µM	12 µM	22 µM	13.8 µM	14.9 µM	6.06 µM	13.2 µM	8 µM	15.8 µM
C[C@@H](c1ccccc1)N1CO[C@@]2(C#Cc3ccc4c(c3)OCO4)CCC[C@@H]12	29.1 µM	33.4 µM	> 100 µM	26 µM		28.4 µM	27 µM	33.3 µM	34 µM	28.1 µM										
